Reference: patent US9708314B2, “Heterocyclic amide compound” (NISSAN CHEMICAL INDUSTRIES, LTD., priority 2013, dated 2017)

Legend:
Format in all cases: in vivo
[1] = system: Monochoria vaginalis; assay: Test Example 1: herbicidal activity, application before weed generation in submerged conditions; conditions: Application herbicide amount 320 g/ha; Seventeenth Table
Summary of the method: (§1)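 Pre-emergence water-surface application under 4 cm flooding, same day as sowing, with rice transplanted at 2.5 leaf stage. Dose given as g/ha. Plants grown at 25° C. to 30° C. and rated three weeks later on a 0 (≤5%) to 5 (≥90%) herbicidal-ratio scale.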

[2] = system: Echinochloa oryzacola Vasing.; assay: as above; conditions: Application herbicide amount 320 g/ha; Seventeenth Table
Summary of the method: as §1

[3] = system: Scirpus juncoides; assay: as above; conditions: Application herbicide amount 320 g/ha; Seventeenth Table
Summary of the method: as §1

[4] = system: Setaria viridis; assay: Test Example 4: herbicidal effect by application to foliage (diluvial soil, plastic box); conditions: Application herbicide amount 320 g/ha
Summary of the method: (§2)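 Seeds sown in sterilized diluvial soil, covered ~1.5 cm, grown 14 days in greenhouse at 25° C. to 30° C. Emulsion formulation diluted in water to set rate (g/ha) and sprayed onto stems and leaves. Effect scored visually 3 weeks later on 0–5 scale (5 = ≥90% herbicidal ratio, 0 = ≤5%).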

[5] = system: Lolium multiflorum Lam.; assay: as above; conditions: Application herbicide amount 320 g/ha
Summary of the method: as §2

[6] = system: Galium spurium; assay: as above; conditions: Application herbicide amount 320 g/ha
Summary of the method: as §2

[7] = system: Abutilon theophrasti; assay: as above; conditions: Application herbicide amount 320 g/ha
Summary of the method: as §2

[8] = system: Veronica persica; assay: as above; conditions: Application herbicide amount 320 g/ha
Summary of the method: as §2

[9] = system: Apera spica-venti.; assay: as above; conditions: Application herbicide amount 320 g/ha
Summary of the method: as §2

[10] = system: Chenopodium album; assay: as above; conditions: Application herbicide amount 320 g/ha
Summary of the method: as §2

[11] = system: Echinochloa crus-galli var. crus-galli; assay: as above; conditions: Application herbicide amount 320 g/ha
Summary of the method: as §2

[12] = system: Digitaria ciliaris; assay: as above; conditions: Application herbicide amount 320 g/ha
Summary of the method: as §2

[13] = system: Avena fatua; assay: as above; conditions: Application herbicide amount 320 g/ha
Summary of the method: as §2

[14] = system: Alopecurus myosuroides; assay: as above; conditions: Application herbicide amount 320 g/ha
Summary of the method: as §2

Row | Structure (SMILES) | C: Monochoria vaginalis (herbicidal effect grade) [1] | A: Echinochloa oryzicola Vasing. (herbicidal effect grade) [2] | B: Scirpus juncoides (herbicidal effect grade) [3] | G [4] | K [5] | Q [6] | M [7] | R [8] | L [9] | O [10] | H [11] | F [12] | I [13] | J [14]
1 | Cc1nnc(NC(=O)c2ccc(C(F)(F)F)n3c(N(C)c4ccccc4)nnc23)o1 [1-086] | 4 (Herbicidal ratio of 70% or more and less than 90%) | 5 (Herbicidal ratio of 90% or more (almost completely withered)) | 4 (Herbicidal ratio of 70% or more and less than 90%) | 4 (Herbicidal ratio of 70% or more and less than 90%) | 0 (Herbicidal ratio of 5% or less (almost no effect)) | 1 (Herbicidal ratio of 5% or more and less than 20%) | 5 (Herbicidal ratio of 90% or more (almost completely withered)) | 4 (Herbicidal ratio of 70% or more and less than 90%) | 0 (Herbicidal ratio of 5% or less (almost no effect)) | 5 (Herbicidal ratio of 90% or more (almost completely withered)) | 5 (Herbicidal ratio of 90% or more (almost completely withered)) | 5 (Herbicidal ratio of 90% or more (almost completely withered)) | 0 (Herbicidal ratio of 5% or less (almost no effect)) | 0 (Herbicidal ratio of 5% or less (almost no effect))
2 | Cc1nnc(NC(=O)c2ccc(C(F)(F)F)n3c(NC(C)C)nnc23)o1 [1-090] | 2 (Herbicidal ratio of 20% or more and less than 40%) | 3 (Herbicidal ratio of 40% or more and less than 70%) | 4 (Herbicidal ratio of 70% or more and less than 90%) | 3 (Herbicidal ratio of 40% or more and less than 70%) | 1 (Herbicidal ratio of 5% or more and less than 20%) | 1 (Herbicidal ratio of 5% or more and less than 20%) | 3 (Herbicidal ratio of 40% or more and less than 70%) | 5 (Herbicidal ratio of 90% or more (almost completely withered)) | 1 (Herbicidal ratio of 5% or more and less than 20%) | 5 (Herbicidal ratio of 90% or more (almost completely withered)) | 5 (Herbicidal ratio of 90% or more (almost completely withered)) | 5 (Herbicidal ratio of 90% or more (almost completely withered)) | 3 (Herbicidal ratio of 40% or more and less than 70%) | 1 (Herbicidal ratio of 5% or more and less than 20%)
3 | CC(C)Sc1nnc2c(C(=O)Nc3nnco3)ccc(C(F)(F)F)n12 [1-091] | 5 (Herbicidal ratio of 90% or more (almost completely withered)) | 5 (Herbicidal ratio of 90% or more (almost completely withered)) | 5 (Herbicidal ratio of 90% or more (almost completely withered)) | 5 (Herbicidal ratio of 90% or more (almost completely withered)) | 3 (Herbicidal ratio of 40% or more and less than 70%) | 4 (Herbicidal ratio of 70% or more and less than 90%) | 5 (Herbicidal ratio of 90% or more (almost completely withered)) | 5 (Herbicidal ratio of 90% or more (almost completely withered)) | 3 (Herbicidal ratio of 40% or more and less than 70%) | 5 (Herbicidal ratio of 90% or more (almost completely withered)) | 5 (Herbicidal ratio of 90% or more (almost completely withered)) | 5 (Herbicidal ratio of 90% or more (almost completely withered)) | 4 (Herbicidal ratio of 70% or more and less than 90%) | 2 (Herbicidal ratio of 20% or more and less than 40%)
